Data published in US11591298B2, “Bisaminoquinoline compounds, pharmaceutical compositions prepared therefrom and their use” (THE TRUSTEES OF THE UNIVERSITY OF PENNSYLVANIA, priority 2011, dated 2023).
Like-named read-outs stand apart in the source and are kept apart here.

How the values were obtained:
[1] = Acridine orange staining of acidic vesicles; type: cell-based; conditions: 24 hours
[2] = test system: mice; conditions: for mortality: daily i.p. for 48 hours, HCQ 60 mg/kg, Lys05 76 mg/kg
Protocol: (§1) Lys05, the trihydrochloride salt of Lys01 was synthesized to enhance aqueous solubility and to enable in vivo studies. […] To investigate the safety of Lys05 and its in vivo effects on autophagy, c8161 xenografts matched for tumor size were treated with intraperitoneal (i.p.) daily PBS, or equimolar doses of HCQ or Lys05 (HCQ 60 mg/kg (138 nmoles/g), Lys05 76 mg/kg (138 nmoles/g)) for 48 hours. […] After 48 hours of treatment mice were euthanized, and tumors were processed for electron microscopy (EM).

[3] = test system: LN229 GFP-LC3 cells; assay: Bafilomycin clamp experiment (LC3 immunoblotting); type: cell-based, human; conditions: 24 hours; HCQ 10 μM, Lys01 10 μM, rapamycin
Protocol: (§2) FIGS. 4A, 4B, 4C, 4D. Autophagy inhibition and cytotoxicity of Lys01 compared to HCQ (4A) Representative images of LN229 GFP-LC3 cells treated as indicated for 4 hours. White arrows: small puncta; red arrows: dense puncta. Graphs show mean+/−SEM puncta/cell. (4B) Representative electron micrographs of LN229-GFP-LC3 cells treated (4 hours) with DMSO, HCQ 10 μM, or Lys01 10 μM Arrows: Autophagic vesicles. (4C) LC3 immunoblotting of LN229 cells treated for 24 hours an indicated; calculated ratio of LC3II/LC3I ratios for bafilomycin versus control co-treatment. Above the dashed line indicates an autophagy inducer or control, below the dashed line indicated an autophagy inhibitor. (4D) MTT assay (72 hours) for 4 cell lines. Red: Lys01, Blue: Lys02, Purple: Lys03 Green: Lys04 Orange: HCQ. Values presented are means+/−SEM with 5 replicates per treatment.
To further characterize the effects of Lys01 on autophagy, LN229 GFP-LC3 cells were treated with Lys01 or HCQ (FIG. 4A). […] Electron micrographs of LN229 GFP-LC3 cells treated with DMSO, HCQ, or Lys01 further characterized the significant morphological difference in the size and number of vesicles produced by blockade of autophagy with these agents (FIG. 4B). Thus, Lys01 produces morphological changes more pronounced than HCQ, a known lysosomal inhibitor, at 10-fold lower concentrations. […]

[4] = test system: LN229 GFP-LC3 cells; assay: GFP-LC3 puncta imaging in LN229 GFP-LC3 cells; type: cell-based, human; conditions: within 4 hours
[5] = test system: LN229 (glioma), 1205Lu (melanoma), HT-29 (colon) and c8161 (melanoma) cells; assay: MTT assay (72 hours) in 4 cell lines; type: cell-based; conditions: range over the 4 cell lines tested
Protocol: as §2, with “Autophagy inhibition and cytotoxicity of Lys01 compared to HCQ (4A) Representative images of LN229 GFP-LC3 cells treated as indicated for 4 hours.” left out, “Above the dashed line indicates an autophagy inducer or control, below the dashed line indicated an autophagy inhibitor.” left out
The MTT assay was used to assess viable cells at 72 hours.

[6] = type: cell-based; conditions: within 30 minutes
[7] = human, 24 h, 10 μM
Protocol: FIGS. 11A, 11B, 11C, 11D. […] (11B) Concentrations of HCQ or Lys05 in cells and tumor whole cell and lysosomal homogenates. […] Lysotracker puncta (red) per cell was scored for three high powered fields. Blue: nuclear DAPI staining. Data presented is mean+SEM (11D) Fluorescence imaging of c8161 cells treated as indicated for 24 hours and stained with acridine orange (AO): orange: Aggregated AO, green: diffuse AO
FIG. 12. High performance liquid chromatography tandem mass spectrometry assay for HCQ and Lys05. 1205Lu cells (24 hours) and 1205Lu tumors (14 days). WC: Whole cell homogenate L: Lysosomal subfraction HCQ: Hydroxychloroquine

[8] = test system: 1205Lu xenografts; assay: 1205Lu xenograft antitumor activity (14 days); type: in vivo, nude mice; conditions: for increase in AV/cell compared to control treated tumors: end of 14 days of treatment, HCQ 60 mg/kg
[9] = test system: LC3II/LC3I ratio in LN229 cells; assay: LC3 immunoblotting (LC3II/LC3I ratio) in LN229 cells; type: cell-based, human; conditions: 4 hours
Protocol: FIG. 3. Effects of Lys01-Lys04 on LC3 immunoblotting Immunoblotting and quantification of LC3II/LC3I ratio in lysates from LN229 cells treated for 4 hours. The graphs show (mean+/−SD) LC3II/LC3I ratios of each treatment normalized to the LC3II/LC3I ratio of control treated cells for each experiment.
LN229 (human glioblastoma) were treated with Lys01 and derivatives Lys02, Lys03, Lys04, HCQ and CQ. […] LC3 is a ubiquitin-like protein which exists as an unconjugated form (LC3I) or conjugated to AV membranes (LC3II) (25). The ratio of LC3II/LC3I reflects the accumulation of AV in cells, and therefore effective autophagy inhibition.

[10] = test system: HT-29 colon cancer xenografts
Protocol: (§3) FIGS. 6A, 6B, 6C, 6D, 6E, 6F, 6G. […] (6A) Representative electron micrographs (12,000×) of c8161 xenograft tumors harvested after 2 days of daily i.p. treatment with PBS, HCQ 60 mg/kg, or Lys05 76 mg/kg. Arrows: autophagic vesicles; scale bar 2 μm (6B) Quantification of mean+SEM number of autophagic vesicles/cell from two representative tumors from each treatment group. (C-D) 1205Lu xenografts were treated with PBS (blue), HCQ 60 mg/kg ip (green), or Lys05 76 mg/kg (red) i.p. every 3/5 days. (6C) Tumor volumes over 14 days (6D) Daily tumor growth rate. (E-G) HT29 xenografts were generated in the flanks of nude mice and treated with PBS, Lys05 10 mg/kg/ip daily, Lys05 40 mg/kg ip daily, or Lys05 80 mg/kg ip every 3/5 days. (6E) Average daily tumor growth rate. (6F) Tumor volumes over 14 days.
(§4) FIGS. 7A, 7B, 7C. […] (7A) Immunoblotting against LC3 in lysates from individual c8161 tumors treated as indicated with daily i.p. injections for 48 hours. […] Arrows: Autophagic vesicle (white); apoptotic cell (orange) (7C) Immunoblotting against LC3 in HT29 xenografts treated with daily dosing (10, 40 mg/kg) or 3/5 days (80 mg/kg) for 14 days.

[11] = test system: cathepsin D; conditions: 1205Lu cells; within 24 hours; compared to HCQ- or PBS-treated cells
[12] = test system: acid phosphatase; conditions: 1205Lu xenograft tumors; after 14 days of treatment
[13] = test system: mice; conditions: mouse, in vivo, ip, 76 mg/kg
Protocol: For chronic treatment experiments the 1205Lu melanoma model was chosen over the c8161 xenograft model because c8161 xenografts tend to spontaneously ulcerate confounding tumor measurements and safety analysis. Ten mice bearing 1205Lu xenografts were matched for tumor volume per cohort were assigned to either PBS, HCQ 60 mg/kg i.p. or Lys05 76 mg/kg i.p. (equimolar dosing) dosed for 3 days of daily treatment with 2 days off treatment (3/5 days) for all 3 treatment groups, to allow for symptom recovery and to avoid excess toxicity.
Paneth cell dysfunction, including reduced size and number of eosinophilic lysozyme-containing granules, has previously been described as the pathognomonic sign of autophagy deficiency in mice and a subset of Crohn's disease patients that have a genetic deficiency in the essential autophagy gene ATG16L1 (31).

[14] = test system: c8161 cells; assay: Immunoblotting against LC3 and p62 in c8161 cells; type: cell-based; conditions: Lys01 versus Lys05
Protocol: (§5) FIGS. 5A, 5B. […] (5A) Immunoblotting against LC3 and p62 in c8161 cells treated as indicated (5B) MTT assay in c8161 cells at 72 hours. HCQ: Hydroxychloroquine.
as §1

[15] = test system: cathepsin D; conditions: 1205Lu xenograft tumors; 14 days
[16] = test system: c8161 cells; assay: MTT assay in c8161 cells at 72 hours; type: cell-based; conditions: Lys01 versus Lys05
Protocol: as §5, §1

[17] = test system: acid phosphatase; conditions: 1205Lu cells; 10 μM; within 24 hours
[18] = test system: c8161 xenografts
Protocol: as §3, §4, §1

[19] = test system: mice

CCN(CCO)CCCC(C)Nc1ccnc2cc(Cl)ccc12 (stereo not shown) [HCQ, hydroxychloroquine, reference compound]
acidic vesicles (acridine orange) ([1]; dose range): dose-dependent accumulation of acidic vesicles | mortality [2]: no mice died | LC3II/LC3I ratio in bafilomycin treated cells compared to control cells [3]: did not demonstrate an increase | GFP-LC3 punctate fluorescence ([4]; 1 μM): observed in a minority of cells | GFP-LC3 punctate fluorescence ([4]; 10 μM): numerous small puncta | GFP-LC3 punctate fluorescence ([4]; 100 μM): larger dense puncta | IC50 [5]: 15 to 42 µM | Lysotracker-positive puncta ([6]; 10 μM): not observed | Lysotracker-positive puncta ([6]; 100 μM): significant decrease | concentration in the lysosomal fraction [7]: 13 µM | concentration in the whole cell homogenate [7]: 8 µM | increase in AV/cell compared to control treated tumors ([8]; Lys05 76 mg/kg i.p. 3/5 days): 3 fold

CN(CCN)CCNc1ccnc2cc(Cl)ccc12 [Lys02]
IC50 [5]: 35 to 91 µM

COc1ccc2c(NCCN(C)CCNc3ccnc4cc(OC)ccc34)ccnc2c1 [Lys03]
IC50 [5]: 24 to 53 µM

Clc1ccc2c(NCCOCCOCCNc3ccnc4cc(Cl)ccc34)ccnc2c1 [Lys04]
dose-response relationship / potency in LC3 autophagy assay [9]: intermediate potency | IC50 [5]: 10 to 17 µM

CN(CCNc1ccnc2cc(Cl)ccc12)CCNc1ccnc2cc(Cl)ccc12.Cl.Cl.Cl [Lys05]
acidic vesicles (acridine orange) ([1]; 10 μM): accumulation of acidic vesicles | acidic vesicles (acridine orange) ([1]; 50 μM): no acidic vesicles were observed | excised tumor weights ([10]; 10 mg/kg daily dosing, end of the experiment): significant antitumor activity | average daily tumor growth rate ([10]; 10, 40 mg/kg i.p. daily, 80 mg/kg i.p. 3/5 days): significantly impaired in a dose-dependent fashion | LC3II/LC3I ratio in tumor lysates compared to control ([10]; after 14 days, all Lys05 doses including 10 mg/kg): significant increase | tumor growth curves compared to control ([10]; all 3 doses of Lys05): significant tumor growth impairment | acid-dependent processing of immature cathepsin D to the mature activated form within the lysosome [11]: decreased acid-dependent processing | increase in extralysosomal acid phosphatase activity [12]: 1.75 fold | clinical signs [13]: lethargic with arched backs | histology of the ileum: Paneth cells [13]: dysmorphic Paneth cells | LC3II/LC3I ratio [14]: equivalent dose-dependent increases | autophagy cargo protein p62 [14]: accumulation | mortality [2]: no mice died | clinical signs ([2]; mouse, in vivo, ip, 76 mg/kg): arched backs and lethargy | LC3II/LC3I ratio in bafilomycin treated cells compared to control cells [3]: did not demonstrate an increase | increased acid-dependent processing of cathepsin D within the whole cell homogenate [15]: not observed | Lysotracker-positive puncta ([6]; 10 μM): fewer Lysotracker-positive puncta | Lysotracker-positive puncta ([6]; 100 μM): fewer Lysotracker-positive puncta | tumor growth (growth curves) compared to controls ([8]; Lys05 76 mg/kg i.p. 3/5 days, 14 days): significantly impaired | reduction in the average daily tumor growth rate compared to vehicle treated controls ([8]; Lys05 76 mg/kg i.p. 3/5 days, p=0.002): 53% | average daily tumor growth rate ([8]; Lys05 76 mg/kg i.p. 3/5 days, vehicle 31.2): 14.6 mm^3/day | tumor necrosis ([8]; center of tumors, after 14 days): Extensive tumor necrosis | increase in AV/cell compared to control treated tumors ([8]; Lys05 76 mg/kg i.p. 3/5 days): 6 fold | IC50 values in the MTT assay [16]: identical | reduction in acid phosphatase activity in the lysosomal fraction versus PBS treated cells [17]: 43% | LC3II/LC3I levels in tumors compared to control- or HCQ-treated tumors ([18]; 76 mg/kg i.p. daily, 48 hours): Significantly higher | increase in the mean number of AV/cell compared to control- or HCQ-treated tumors ([18]; Lys05 76 mg/kg i.p. daily, 48 hours, electron microscopy): > 2 fold | cleaved caspase 3 levels compared to HCQ- or PBS-treated tumors ([18]; after 48 hours of treatment): elevated | mice euthanized early for bowel obstruction ([19]; 80 mg/kg i.p. 3/5 days): 2/8 | bowel thickening and obstruction ([19]; mouse, in vivo): limited to 80 mg/kg dose cohort
